These compounds were tested against GABA-A receptor; alpha-2/beta-3/gamma-2 (Homo sapiens) (UniProt P18507+P28472+P47869) (assay: Maximum percent change compared to GABA EC20 against GABA-A alpha-2-beta-3-gamma-2 receptor).
Assay type: functional

| Efficacy [%] | SMILES |
| --- | --- |
| -5 | c1ccc(-c2nnc3c4ccccc4c(OCc4ccccn4)nn23)cc1 |
| 18 | c1ccc(-c2nnc3c4c(c(OCc5ccccn5)nn23)CCCC4)cc1 |
| 27 | c1ccc(-c2nnc3c4c(c(OCc5ccccn5)nn23)CCCCC4)cc1 |

The compounds below were run against T1, GABA-A receptor; alpha-2/beta-3/gamma-2 (Homo sapiens, UniProt P18507+P28472+P47869) (assay: Binding affinity for human GABA-A receptor alpha-2-beta-3-gamma-2 subunits in L(tk-) cells).
T1 sequence (P18507 whole entry): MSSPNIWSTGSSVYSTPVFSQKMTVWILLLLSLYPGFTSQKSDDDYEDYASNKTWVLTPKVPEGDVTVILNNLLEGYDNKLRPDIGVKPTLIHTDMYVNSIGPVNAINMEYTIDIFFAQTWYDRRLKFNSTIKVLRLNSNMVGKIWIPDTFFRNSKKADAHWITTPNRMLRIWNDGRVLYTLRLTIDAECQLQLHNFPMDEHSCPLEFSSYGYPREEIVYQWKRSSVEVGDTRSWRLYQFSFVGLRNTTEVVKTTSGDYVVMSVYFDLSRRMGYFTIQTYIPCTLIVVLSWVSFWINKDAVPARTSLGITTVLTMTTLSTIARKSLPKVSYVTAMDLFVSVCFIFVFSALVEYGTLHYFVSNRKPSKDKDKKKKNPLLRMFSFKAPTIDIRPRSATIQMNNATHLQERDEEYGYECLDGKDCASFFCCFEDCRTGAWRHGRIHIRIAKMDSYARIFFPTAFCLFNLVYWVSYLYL
T1 sequence (P28472 whole entry): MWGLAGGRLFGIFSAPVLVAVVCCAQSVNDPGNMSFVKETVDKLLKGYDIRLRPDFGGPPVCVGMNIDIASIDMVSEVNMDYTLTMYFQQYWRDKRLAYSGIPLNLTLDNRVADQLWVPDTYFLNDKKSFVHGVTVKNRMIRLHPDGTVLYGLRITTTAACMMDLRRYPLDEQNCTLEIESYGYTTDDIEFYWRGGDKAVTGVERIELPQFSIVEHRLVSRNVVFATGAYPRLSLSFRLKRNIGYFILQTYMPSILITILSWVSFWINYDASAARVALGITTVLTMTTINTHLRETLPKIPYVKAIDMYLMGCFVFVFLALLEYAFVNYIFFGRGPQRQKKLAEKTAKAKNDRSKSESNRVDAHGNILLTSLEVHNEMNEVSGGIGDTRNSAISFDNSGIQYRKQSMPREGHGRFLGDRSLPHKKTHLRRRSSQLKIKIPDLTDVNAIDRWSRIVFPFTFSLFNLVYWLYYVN
T1 sequence (P47869 whole entry): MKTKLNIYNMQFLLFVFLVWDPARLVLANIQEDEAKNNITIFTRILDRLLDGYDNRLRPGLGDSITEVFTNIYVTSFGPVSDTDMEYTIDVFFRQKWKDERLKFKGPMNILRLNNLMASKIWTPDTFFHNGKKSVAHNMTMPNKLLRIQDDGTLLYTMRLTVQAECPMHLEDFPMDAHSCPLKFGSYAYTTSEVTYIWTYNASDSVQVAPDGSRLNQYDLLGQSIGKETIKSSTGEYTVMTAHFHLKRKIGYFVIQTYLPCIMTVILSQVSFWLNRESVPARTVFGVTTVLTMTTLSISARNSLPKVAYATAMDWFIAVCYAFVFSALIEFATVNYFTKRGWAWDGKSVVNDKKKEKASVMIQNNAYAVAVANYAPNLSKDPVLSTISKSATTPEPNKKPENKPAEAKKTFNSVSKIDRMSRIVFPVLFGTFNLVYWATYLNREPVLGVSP
Assay type: cell-based

| SMILES | Ki [nM] |
| --- | --- |
| c1ccc(-c2nnc3c4c(c(OCc5ccccn5)nn23)CCCC4)cc1 | 1.9 |
| c1ccc(-c2nnc3c4c(c(OCc5ccccn5)nn23)CCCCC4)cc1 | 17 |

The remaining lines, values ahead:

| Ki [nM] | SMILES |
| --- | --- |
| 1.8 | Cc1cccc2c(OCc3ccccn3)nn3c(-c4ccccc4)nnc3c12 |
| 56 | CC(C)c1nnc2c3ccccc3c(OCc3ccccn3)nn12 |
| 1.7 | c1ccc(-c2nnc3c4ccccc4c(OCc4ccccn4)nn23)cc1 |

Each compound was assayed against T2, GABA-A receptor; alpha-3/beta-3/gamma-2 (Homo sapiens) (UniProt P18507+P28472+P34903) (assay: Inverse agonistic activity against GABA-A receptor alpha-3-beta-3-gamma-2 subunits).
Assay type: functional

| Activity [%] | SMILES |
| --- | --- |
| -21 | CC(C)c1nnc2c3ccccc3c(OCc3ccccn3)nn12 |

Each compound was assayed against T3, GABA-A receptor; alpha-1/beta-3/gamma-2 (Homo sapiens, UniProt P14867+P18507+P28472) (assay: Binding affinity for human GABA-A receptor alpha-1-beta-3-gamma-2 subunits in L(tk-) cells).
T3 sequence (P14867 whole entry): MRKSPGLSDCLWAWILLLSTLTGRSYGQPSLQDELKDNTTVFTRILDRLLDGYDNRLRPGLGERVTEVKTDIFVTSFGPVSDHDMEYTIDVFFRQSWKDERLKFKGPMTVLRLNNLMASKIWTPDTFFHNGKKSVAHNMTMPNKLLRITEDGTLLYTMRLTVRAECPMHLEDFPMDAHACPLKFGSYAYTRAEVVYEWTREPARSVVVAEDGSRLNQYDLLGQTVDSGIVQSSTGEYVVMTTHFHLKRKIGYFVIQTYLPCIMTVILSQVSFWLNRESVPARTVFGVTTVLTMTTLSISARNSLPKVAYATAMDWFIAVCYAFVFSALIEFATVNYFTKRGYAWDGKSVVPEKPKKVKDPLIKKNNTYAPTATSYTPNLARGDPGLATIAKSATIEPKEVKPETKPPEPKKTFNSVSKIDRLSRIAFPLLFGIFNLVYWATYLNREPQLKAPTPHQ
T3 sequence (P18507 whole entry): T1 sequence (P18507 whole entry)
T3 sequence (P28472 whole entry): T1 sequence (P28472 whole entry)

| SMILES | Ki [nM] |
| --- | --- |
| c1ccc(-c2nnc3c4c(c(OCc5ccccn5)nn23)CCCC4)cc1 | 4.3 |
| c1ccc(-c2nnc3c4c(c(OCc5ccccn5)nn23)CCCCC4)cc1 | 41 |

The next lines start with the values.

| Ki [nM] | SMILES |
| --- | --- |
| 1.2 | Cc1cccc2c(OCc3ccccn3)nn3c(-c4ccccc4)nnc3c12 |
| 160 | CC(C)c1nnc2c3ccccc3c(OCc3ccccn3)nn12 |
| 2.7 | c1ccc(-c2nnc3c4ccccc4c(OCc4ccccn4)nn23)cc1 |

Each compound was assayed against T2, GABA-A receptor; alpha-3/beta-3/gamma-2 (Homo sapiens) (assay: (§1) Maximum percent change compared to GABA EC20 against GABA-A alpha-3-beta-3-gamma-2 receptor).
Assay type: functional

| Efficacy [%] | SMILES |
| --- | --- |
| -16 | c1ccc(-c2nnc3c4ccccc4c(OCc4ccccn4)nn23)cc1 |

These compounds were tested against T4, GABA-A receptor; alpha-5/beta-3/gamma-2 (Homo sapiens, UniProt P18507+P28472+P31644) (assay: Binding affinity for human GABA-A receptor alpha-5-beta-3-gamma-2 subunits in L(tk-) cells).
T4 sequence (P18507 whole entry): T1 sequence (P18507 whole entry)
T4 sequence (P28472 whole entry): T1 sequence (P28472 whole entry)
T4 sequence (P31644 whole entry): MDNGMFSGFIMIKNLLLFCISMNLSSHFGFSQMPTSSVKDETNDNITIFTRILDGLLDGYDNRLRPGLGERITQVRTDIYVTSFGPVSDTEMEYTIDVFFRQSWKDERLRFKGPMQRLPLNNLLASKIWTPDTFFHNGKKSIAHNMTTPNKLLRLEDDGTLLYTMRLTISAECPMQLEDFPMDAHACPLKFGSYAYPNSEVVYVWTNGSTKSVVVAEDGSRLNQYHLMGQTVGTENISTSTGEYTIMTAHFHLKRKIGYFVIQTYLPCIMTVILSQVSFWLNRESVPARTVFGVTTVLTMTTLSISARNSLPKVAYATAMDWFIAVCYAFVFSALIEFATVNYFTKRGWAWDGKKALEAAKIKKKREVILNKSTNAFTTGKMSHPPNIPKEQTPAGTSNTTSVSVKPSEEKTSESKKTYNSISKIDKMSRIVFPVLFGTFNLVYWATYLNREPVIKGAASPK
Assay type: cell-based

| SMILES | Ki [nM] |
| --- | --- |
| c1ccc(-c2nnc3c4c(c(OCc5ccccn5)nn23)CCCC4)cc1 | 0.38 |
| c1ccc(-c2nnc3c4c(c(OCc5ccccn5)nn23)CCCCC4)cc1 | 2.7 |

Continued, values first:

| Ki [nM] | SMILES |
| --- | --- |
| 0.84 | Cc1cccc2c(OCc3ccccn3)nn3c(-c4ccccc4)nnc3c12 |
| 8 | CC(C)c1nnc2c3ccccc3c(OCc3ccccn3)nn12 |
| 0.33 | c1ccc(-c2nnc3c4ccccc4c(OCc4ccccn4)nn23)cc1 |

What follows are compounds tested against GABA-A receptor; alpha-5/beta-3/gamma-2 (Homo sapiens) (UniProt P18507+P28472+P31644) (assay: Maximum percent change compared to GABA EC20 against GABA-A alpha-5-beta-3-gamma-2 receptor).
Assay type: functional

| Efficacy [%] | SMILES |
| --- | --- |
| -5 | c1ccc(-c2nnc3c4ccccc4c(OCc4ccccn4)nn23)cc1 |
| 6 | c1ccc(-c2nnc3c4c(c(OCc5ccccn5)nn23)CCCC4)cc1 |
| 37 | c1ccc(-c2nnc3c4c(c(OCc5ccccn5)nn23)CCCCC4)cc1 |

These compounds were tested against T2, GABA-A receptor; alpha-3/beta-3/gamma-2 (Homo sapiens) (assay: as §1).
Assay type: functional

| SMILES | Efficacy [%] |
| --- | --- |
| c1ccc(-c2nnc3c4c(c(OCc5ccccn5)nn23)CCCC4)cc1 | 17 |
| c1ccc(-c2nnc3c4c(c(OCc5ccccn5)nn23)CCCCC4)cc1 | 30 |

Other lines, results leading:

| Efficacy [%] | SMILES |
| --- | --- |
| 19 | Cc1cccc2c(OCc3ccccn3)nn3c(-c4ccccc4)nnc3c12 |
| -16 | c1ccc(-c2nnc3c4ccccc4c(OCc4ccccn4)nn23)cc1 |

Each compound was assayed against T5, GABA-A receptor; alpha-1/beta-3/gamma-2 (Homo sapiens) (UniProt P14867+P18507+P28472) (assay: (§2) Maximum percent change compared to GABA EC20 against GABA-A alpha-1-beta-3-gamma-2 receptor).
Assay type: protein-complex assay

| Efficacy [%] | SMILES |
| --- | --- |
| -7 | c1ccc(-c2nnc3c4ccccc4c(OCc4ccccn4)nn23)cc1 |

Each compound was assayed against T5, GABA-A receptor; alpha-1/beta-3/gamma-2 (Homo sapiens) (assay: as §2).
Assay type: functional

| SMILES | Efficacy [%] |
| --- | --- |
| c1ccc(-c2nnc3c4c(c(OCc5ccccn5)nn23)CCCC4)cc1 | 16 |
| c1ccc(-c2nnc3c4c(c(OCc5ccccn5)nn23)CCCCC4)cc1 | 30 |

Results, then the compound that gave them:

| Efficacy [%] | SMILES |
| --- | --- |
| 0 | Cc1cccc2c(OCc3ccccn3)nn3c(-c4ccccc4)nnc3c12 |
| -7 | c1ccc(-c2nnc3c4ccccc4c(OCc4ccccn4)nn23)cc1 |

What follows are compounds tested against T6, GABA-A receptor; alpha-3/beta-3/gamma-2 (Homo sapiens, UniProt P18507+P28472+P34903) (assay: Binding affinity for human GABA-A receptor alpha-3-beta-3-gamma-2 subunits in L(tk-) cells).
T6 sequence (P18507 whole entry): T1 sequence (P18507 whole entry)
T6 sequence (P28472 whole entry): T1 sequence (P28472 whole entry)
T6 sequence (P34903 whole entry): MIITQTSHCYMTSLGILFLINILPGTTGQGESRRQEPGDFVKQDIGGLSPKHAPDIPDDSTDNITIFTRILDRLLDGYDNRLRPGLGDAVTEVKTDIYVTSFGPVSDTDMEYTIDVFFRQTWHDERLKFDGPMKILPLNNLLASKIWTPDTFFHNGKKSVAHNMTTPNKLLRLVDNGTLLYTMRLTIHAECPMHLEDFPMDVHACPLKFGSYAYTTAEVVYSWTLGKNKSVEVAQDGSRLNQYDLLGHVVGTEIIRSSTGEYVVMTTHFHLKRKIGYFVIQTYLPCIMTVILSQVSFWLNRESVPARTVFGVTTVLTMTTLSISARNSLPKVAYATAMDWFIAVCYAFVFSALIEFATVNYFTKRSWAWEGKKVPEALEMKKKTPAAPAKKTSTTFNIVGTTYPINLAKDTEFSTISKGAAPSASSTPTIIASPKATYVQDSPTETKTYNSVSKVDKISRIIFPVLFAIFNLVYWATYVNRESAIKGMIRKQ
Assay type: cell-based

| SMILES | Ki [nM] |
| --- | --- |
| c1ccc(-c2nnc3c4c(c(OCc5ccccn5)nn23)CCCC4)cc1 | 0.85 |
| c1ccc(-c2nnc3c4c(c(OCc5ccccn5)nn23)CCCCC4)cc1 | 17 |

Continued, values first:

| Ki [nM] | SMILES |
| --- | --- |
| 0.37 | Cc1cccc2c(OCc3ccccn3)nn3c(-c4ccccc4)nnc3c12 |
| 39 | CC(C)c1nnc2c3ccccc3c(OCc3ccccn3)nn12 |
| 0.71 | c1ccc(-c2nnc3c4ccccc4c(OCc4ccccn4)nn23)cc1 |
